Source: US12091394B2, “Crystal modifications of odevixibat” (Albireo AB, priority 2018, dated 2024)

What was measured:
[1] = Stability testing: storage in a closed container under air at 80° C., odevixibat content by HPLC; assay type: physicochemical; settings: for Odevixibat content (%): closed container under air at 80° C., HPLC
Procedure: Analyses were performed on an Agilent, Series 1100, equipped with an Agilent 1260 Infinity degasser. Column: Waters XSelcet CHS C18 (150×3 mm, 3.5 μm); Mobile phase A: 0.1% formic acid in water, mobile phase B: 0.1% formic acid in acetonitrile; Gradient 45% to 90% B; flow rate 0.425 mL/min; Acquisition time 35 minutes; Run time 42 minutes; Wave length: 283 nm; Column temperature 20° C. The Chromeleon Version 6.8 software was used.
Samples of amorphous odevixibat (purity ˜91%) and of crystal modification 1 of odevixibat (purity>99%; crystallinity 100%) were stored in a closed container under air at 80° C. The amount of odevixibat in the samples was determined by HPLC at the beginning of the experiment, and was again determined after 1, 2 and 4 weeks.

[2] = Dynamic vapour sorption (DVS) water uptake of crystal modification 1; assay type: physicochemical
Procedure: DVS measurements were performed with an SPS11-100n “Sorptions Prüfsystem” from ProUmid (formerly “Projekt Messtechnik”), August-Nagel-Str. 23, 89079 Ulm (Germany). About 20 mg of sample was used. Humidity change rates of 5% per hour were used. The sample was placed on an aluminum or platinum holder on top of a microbalance and allowed to equilibrate at 0% RH before starting the pre-defined humidity program: • (1) 5 h at 0% RH • (2) 0→95% RH (5%/h); 5 h at 95% RH • (3) 95→0% RH (5%/h); 5 h at 0% RH • (4) 0→95% RH (5%/h); 5 h at 95% RH • (5) 95→0% RH (5%/h); 5 h at 0% RH High-Performance Liquid Chromatography (HPLC) The water uptake of crystal modification 1 was measured using dynamic vapour sorption (DVS). […] After drying the sample at 0% RH and increasing the relative humidity, most of the water was taken back up to about 25% RH. This corresponds to a water content of about 3.5% (w/w). An additional 1.5% (w/w) of water was then taken up when the humidity was increased up to 95% RH. […] Crystal modification 1 therefore seems to require about 3.5% (w/w) of water, which corresponds to a sesquihydrate.

[3] = 0 weeks (beginning of the experiment)
[4] = after 4 weeks of storage at 80° C. under air

| SMILES | Odevixibat content (%) [1, 3] [%] | Odevixibat content (%) ([1]; 1 week) | Odevixibat content (%) ([1]; 2 weeks) | Odevixibat content (%) ([1]; 4 weeks) | decomposition [1, 4] [%] | change of purity [1, 4] | hygroscopicity ([2]; DVS, conclusion in words) | water content ([2]; after drying at 0% RH, water taken back up to about 25% RH) | maximum water uptake ([2]; at 95% RH, reversible) | water content ([2]; at about 30% relative humidity, based on the total crystal weight) | additional water uptake ([2]; humidity increased up to 95% RH (range 30-95% RH)) |
| --- | --- | --- | --- | --- | --- | --- | --- | --- | --- | --- | --- |
| CCCCC1(CCCC)CN(c2ccccc2)c2cc(SC)c(OCC(=O)N[C@@H](C(=O)N[C@@H](CC)C(=O)O)c3ccc(O)cc3)cc2S(=O)(=O)N1 [Amorphous odevixibat, 1,1-dioxo-3,3-dibutyl-5-phenyl-7-methylthio-8-(N—{(R)-α-[N—((S)-1-carboxypropyl)carbamoyl]-4-hydroxybenzyl}carbamoylmethoxy)-2,3,4,5-tetrahydro-1,2,5-benzothiadiazepine, reference compound] | 91.1 | 90.9 | 91.04 | 90.8 | 0.3 | – | – | – | – | – | – |
| CCCCC1(CCCC)CN(c2ccccc2)c2cc(SC)c(OCC(=O)N[C@@H](C(=O)N[C@@H](CC)C(=O)O)c3ccc(O)cc3)cc2S(=O)(=O)N1 [crystal modification 1, 1,1-dioxo-3,3-dibutyl-5-phenyl-7-methylthio-8-(N—{(R)-α-[N—((S)-1-carboxypropyl)carbamoyl]-4-hydroxybenzyl}carbamoylmethoxy)-2,3,4,5-tetrahydro-1,2,5-benzothiadiazepine] | 99.13 | 99.15 | 99.18 | 99.24 | – | had not changed | slightly hygroscopic | about 3.5 % (w/w) | about 5.0 % (w/w) | about 3.5 % (w/w) | 1.5 % (w/w) |
